# Data from article PMC5297809, “Design, Synthesis and Antifungal Activity Evaluation of New Thiazolin-4-ones as Potential Lanosterol 14α-Demethylase Inhibitors” (International Journal of Molecular Sciences, 2017).
# Experiments:
# [1] = tested on: Candida albicans ATCC 10231; assay: cup-plate agar diffusion method, inhibition zone diameters; format: cell-based; conditions: ATCC10231, C. albicans ATCC 10231, 1 mg/mL in DMSO, 20 µg/well, mean of three ± SD, read-out: inhibition zone diameters
# [2] = tested on: Candida albicans ATCC 10231; assay: broth microdilution MIC/MFC; format: cell-based; conditions: for MFC: ATCC10231, C. albicans ATCC 10231, read-out: MFC; for MIC: ATCC10231, C. albicans ATCC 10231, read-out: MIC
# [3] = tested on: Candida albicans ATCC 18804; assay: broth microdilution MIC/MFC; format: cell-based; conditions: for MFC: ATCC18804, C. albicans ATCC 18804, read-out: MFC; for MIC: ATCC18804, C. albicans ATCC 18804, read-out: MIC
# Candida krusei ATCC 6258 = assay: broth microdilution MIC/MFC; format: cell-based; conditions: Pichia kudriavzevii, ATCC6258, C. krusei ATCC 6258; for MFC: read-out: MFC; for MIC: read-out: MIC
# [4] = tested on: Candida parapsilosis ATCC 22019; assay: broth microdilution MIC/MFC; format: cell-based; conditions: Lodderomyces parapsilosis, ATCC22019, C. parapsilosis ATCC 22019; for MFC: read-out: MFC; for MIC: read-out: MIC
# [5] = lipophilicity by RP-TLC with PCA; format: physicochemical; parameters: key to P1 / P2: PCA scores of compounds computed from Rf data; conditions: for RM0: RP-TLC C18, water-i-propanol 45-65%, intercept, RM extrapolated to 0% organic modifier (lipophilicity); for b: RP-TLC regression slope (specific hydrophobic surface area); for P1: score of first principal component of Rf data, low P1 = highly lipophilic; for P2: score of second principal component of Rf data
# Experimental: The lipophilic character of twenty thiazolin-4-one derivatives was assessed with the help of the principal component analysis (PCA) based on the reversed-phase thin-layer chromatography (RP-TLC) data.
# The chromatographic behavior of the test compounds was studied on C18 silicagel bonded 60 RP-180F254S TLC (20 × 20 cm) plates, purchased from Merck (Darmstadt, Germany). The test compounds’ solutions (1 mg/mL) were prepared by dissolving the samples in DMSO (Merck, Darmstadt, Germany). The plates were manually spotted with 3 µL aliquots of each solution at 10 mm from the base and 5 mm from the edge of the plate, leaving a 10 mm distance between successive spots, and developed by the ascending technique, without preconditioning. Chromatography was performed in a normal developing chamber at room temperature (~24 °C), the developing distance being of 9 cm. The solvent system used as mobile phase consisted of a water-i-propanol mixture, with a varying content of organic modifier (i-propanol—concentration ranged between 45% and 65% (v/v), with 5% vol. increments). Before the development, the chamber was saturated with the mobile phase for 15 min. After being developed, the dried plates were visually inspected under the UV light (λ = 254 nm), each spot was clearly marked and its distance was manually measured in order to calculate the Rf values. The spots of the compounds 3f, 10 and 11 were not visible in UV light, thus their Rf values could not be calculated, therefore they were excluded from this assay.
# Based on the Rf values, one of the most common lipophilic estimator, meaning the isocratic retention factor RM was calculated using the Bate-Smith and Westall equations [40].
# RP-TLC provides retention data in the form of Rf and the corresponding RM values (Equation (2)) that can be used to derive chromatographic descriptors for estimating lipophilicity: RM0, b and PCA. The most popular lipophilicity descriptor estimated by this method is RM and it is derived from the retention factor (Rf) according to the following formula: RM = log[(1/Rf) − 1] (2) where Rf is calculated on the basis of migration distance of a compound and the solvent front.
# As RM value (related to the molecular lipophilicity) depends linearly on the concentration of the organic modifier in the mobile phase, the value is extrapolated to pure water as mobile phase. In order to increase the accuracy of the lipophilicity determination, the RM values extrapolated to zero organic modifier concentration (RM0) have been calculated from the linear correlation between the RM values and the concentration of the organic component of the mobile phase: RM = RM0 + bc (3) where RM0 is the lipophilicity estimation parameter, RM is the retention of the solute, b is the slope, and c is the concentration of the mobile phase organic modifier (i-propanol).
# The intercept (RM0) in Equation (3) represents the extrapolated RM values at 0% organic modifier.
# PCA was performed on the obtained retention parameters with the help of XL-STAT extension. […] PCA gave the coordinates (scores) of the studied compounds and also the loadings of the variables (solvents) on the principal components.
# four strains of Candida = assay: broth microdilution MIC/MFC, summary over the four strains; format: cell-based; conditions: for fold more active than fluconazole: anti-Candida activity; for MFC / MIC: summary over two C. albicans, one C. krusei and one C. parapsilosis strain
Compound,zone of inhibition at 1000 µg/mL [1] [mm],MFC [2] [mg/L],MIC [2] [mg/L],MFC [3] [mg/L],MIC [3] [mg/L],MFC (Candida krusei ATCC 6258) [mg/L],MIC (Candida krusei ATCC 6258) [mg/L],MFC [4] [mg/L],MIC [4] [mg/L],RM0 [5],b [5],P1 [5],P2 [5],melting point [°C],fold more active than fluconazole (four strains of Candida),MFC (four strains of Candida) [mg/L],MIC (four strains of Candida) [mg/L]
"O=C1N=C(Nc2ccccc2)SC1=Cc1ccc([N+](=O)[O-])cc1 [Compound 6c, 5-(4-Nitrobenzylidene)-2-(phenylamino)thiazol-4(5H)-one]",20 ± 1,1.95,0.97,3.9,1.95,1.95,0.97,1.95,0.97,1.7388,−3.3696,1.394,−0.304,347,–,–,–
"O=C1N=C(Nc2ccccc2)SC1=Cc1csc(-c2ccccc2)n1 [Compound 6d, 2-(Phenylamino)-5-((2-phenylthiazol-4-yl)methylene)thiazol-4(5H)-one]",20 ± 1,7.81,3.9,15.6,7.81,15.6,7.81,7.81,3.9,2.1996,−3.8092,−0.168,−0.359,287 to 289,–,–,–
"O=C1N=C(Nc2ccccc2)SC1=Cc1coc2ccc(Cl)cc2c1=O [Compound 6e, 5-((6-Chloro-4-oxo-4H-chromen-3-yl)methylene)-2-(phenylamino)thiazol-4(5H)-one]",16 ± 1,3.9,1.95,3.9,0.97,3.9,0.97,0.97,0.48,2.22,−3.9066,0.079,−0.443,356,–,–,–
"O=C1N=C(Nc2cccc3ccccc23)SC1=Cc1cccc(Cl)c1 [Compound 9a, 5-(3-Chlorobenzylidene)-2-(naphthalen-1-ylamino)thiazol-4(5H)-one]",18 ± 1,7.81,3.9,7.81,1.95,0.97,0.48,0.97,0.48,2.5309,−4.1292,−1.227,−0.239,140,–,–,–
"O=C1N=C(Nc2cccc3ccccc23)SC1=Cc1ccc(Cl)cc1Cl [Compound 9b, 5-(2,4-Dichlorobenzylidene)-2-(naphthalen-1-ylamino)thiazol-4(5H)-one]",18 ± 0.2,0.03,0.015,0.03,0.015,0.015,0.015,0.015,0.015,2.9283,−4.3675,−2.876,0.232,185,over 500 fold,0.015,0.015
"O=C1N=C(Nc2cccc3ccccc23)SC1=Cc1ccc([N+](=O)[O-])cc1 [Compound 9c, 2-(Naphthalen-1-ylamino)-5-(4-nitrobenzylidene)thiazol-4(5H)-one]",20 ± 0.5,3.9,1.95,3.9,1.95,1.95,0.97,0.06,0.03,2.7789,−4.1555,−2.722,0.228,152,–,–,–
"O=C1N=C(Nc2cccc3ccccc23)SC1=Cc1csc(-c2ccccc2)n1 [Compound 9d, 2-(Naphthalen-1-ylamino)-5-((2-phenylthiazol-4-yl)methylene)thiazol-4(5H)-one]",20 ± 1,15.6,7.81,3.9,3.9,0.48,0.24,0.24,0.12,3.287,−4.6935,−3.746,0.618,312,–,–,–
"O=C1N=C(Nc2cccc3ccccc23)SC1=Cc1coc2ccc(Cl)cc2c1=O [Compound 9e, 5-((6-Chloro-4-oxo-4H-chromen-3-yl)methylene)-2-(naphthalen-1-ylamino)thiazol-4(5H)-one]",22 ± 0.5,15.6,7.81,3.9,1.95,3.9,1.95,3.9,1.95,2.3983,−3.319,−3.292,0.708,266 to 268,–,–,–
"CNC1=NC(=O)CS1 [Compound 10, 2-(methylamino)thiazol-4(5H)-one]",22 ± 1,0.03,0.015,0.03,0.015,0.015,0.015,0.015,0.015,–,–,–,–,–,over 500 fold,0.015,0.015
"OC(Cn1cncn1)(Cn1cncn1)c1ccc(F)cc1F [Fluconazole, reference compound]",22 ± 0.5,31.2,15.6,31.2,15.6,31.2,15.6,15.6,7.81,–,–,–,–,–,–,15.6 to 31.2,7.81 to 15.6
"CC(=O)N1CCN(c2ccc(OCC3COC(Cn4ccnc4)(c4ccc(Cl)cc4Cl)O3)cc2)CC1 (stereo not shown) [Ketoconazole, reference compound]",–,15.6,7.81,15.6,7.81,15.6,7.81,7.81,3.9,–,–,–,–,–,–,7.81 to 15.6,3.9 to 7.81
